# Measurements as given in US7371412B2, “Pharmaceutical compositions comprising an extract of Euphorbia prostrata” (priority 2004, dated 2008).
# Key:
# COX-2 = conditions: lipopolysaccharide activated RAW 264.7 macrophages (Liang et al., 1999); cited from earlier work
# rat liver microsomes = conditions: CCl4 induced peroxidation; rat liver microsomes (Cholbi et al., 1991); cited from earlier work
# [1] = test system: iNOS (inducible nitric oxide synthase); conditions: lipopolysaccharide activated RAW 264.7 macrophages (Liang et al., 1999); cited from earlier work
# murine macrophages = murine macrophages (Xagorari et al., 2001); cited from earlier work
# [2] = test system: acetic acid-induced chemonociception; experiment: Acetic acid-induced writhing; assay type: in vivo; conditions: mice; for antinociceptive effect in the writhing test: p.o.
# [3] = test system: carrageenan-induced hemorrhoids; experiment: Antihaemorrhoidal activity, anorectum:body weight ratio model; assay type: in vivo; conditions: rats, p.o.; for effect against carrageenan-induced hemorrhoids: chronic administration (7 days)
# Protocol: The antihaemorrhoidal activity of the Euphorbia prostrata extract was assessed and compared with reference drug, diosmin using anorectum:body weight ratio model in rats (modified method of Jia et al., 2000).
# FIG. 1: Effect of Euphorbia prostrata extract (E.p. extract) against carrageenan-induced hemorrhoids in rats.
# FIG. 2: Effect of individual component of Euphorbia prostrata extract (E.p. extract) against carrageenan-induced hemorrhoids in rats.
# histamine release = conditions: in vivo (Bhargava and Westfall, 1969); cited from earlier work
# [4] = test system: carrageenan-induced hyperalgesia; experiment: Carrageenan-induced hyperalgesia, paw pressure test; assay type: in vivo; conditions: rats; 2 mg/kg
# Source text: FIG. 7: Effect of Euphorbia prostrata extract (E.p. extract) against carageenan-induced hyperalgesia in rats.
# [5] = In vitro superoxide radical scavenging activity; assay type: biochemical; conditions: 25 μg
# Source text: FIG. 9: In vitro superoxide radical scavenging activity of Euphorbia prostrata extract (E.p. extract).
# [6] = test system: oedematous response to croton oil; conditions: Della Loggia et al., 1986; cited from earlier work
compound,measurement,setting,value
O=c1cc(-c2ccc(O)cc2)oc2cc(O)cc(O)c12 [apigenin],inhibition of transcriptional activation of COX-2,COX-2,most potent inhibitor
same,antiperoxidative activity,rat liver microsomes,significant antiperoxidative activity
same,inhibition of transcriptional activation of iNOS,[1],most potent inhibitor
O=c1cc(-c2ccc(O)c(O)c2)oc2cc(O)cc(O)c12 [luteolin],"protein tyrosin phosphorylation, nuclear factor-κB mediated gene expression and pro-inflammatory cytokine production",murine macrophages,inhibits
same,antiperoxidative activity,rat liver microsomes,significant antiperoxidative activity
O=c1cc(-c2ccc(O)c(O)c2)oc2cc(O[C@@H]3O[C@H](CO)[C@@H](O)[C@H](O)[C@H]3O)cc(O)c12 [luteolin-7-glucoside],antinociceptive effect in the writhing test,"[2]; 0.25, 0.5, and 1.0 mg/kg",dose-dependent antinociceptive effect
"COc1ccc(-c2cc(=O)c3c(O)cc(O[C@@H]4O[C@H](CO[C@@H]5O[C@@H](C)[C@H](O)[C@@H](O)[C@H]5O)[C@@H](O)[C@H](O)[C@H]4O)cc3o2)cc1O [diosmin, reference compound]",anorectal body weight ratio,"[3]; 50 mg/kg, 7 days",significantly decreased
same,histopathological examination of the anorectum,"[3]; 50 mg/kg, 7 days",intact mucosal layer with prominent mucosal cells and mild leukocyte migration
O=c1oc2c(O)c(O)cc3c(=O)oc4c(O)c(O)cc1c4c23 [ellagic acid],effect against carrageenan-induced hemorrhoids,[3]; 1.204 mg/kg,showed effect
same,"histamine release mediated by histamine liberators (compound 48/80, dextran and polymyxin B sulfate)",histamine release,suppress histamine release
O=C(O)c1cc(O)c(O)c(O)c1 [gallic acid],effect against carrageenan-induced hemorrhoids,[3]; 1.123 mg/kg,showed effect
"CS(=O)(=O)Nc1ccc([N+](=O)[O-])cc1Oc1ccccc1 [nimesulide, reference compound]",paw withdrawal latencies,[4],increased
same,pain threshold,[2]; 2 mg/kg,significantly increased
tocopherol,superoxide radical scavenging activity,[5],25.54%
O=c1cc(-c2ccc(O)cc2)oc2cc(O[C@@H]3O[C@H](CO)[C@@H](O)[C@H](O)[C@H]3O)cc(O)c12 [apigenin-7-glucoside],oedematous response to croton oil,[6],dose dependent inhibition
same,effect against carrageenan-induced hemorrhoids,[3]; 0.478 mg/kg,showed effect
same,antinociceptive effect in the writhing test,"[2]; 0.5, 1.0, and 2.0 mg/kg",dose-dependent antinociceptive effect
O=c1cc(-c2ccc(O)c(O)c2)oc2cc(O[C@@H]3O[C@H](CO)[C@H](O)[C@H](O)[C@H]3O)cc(O)c12 [luteolin-7-galactoside],oedematous response to croton oil,[6],dose dependent inhibition
